pIC50: −log10 of the molar value.

In this test the target is Human Factor D (Homo sapiens (Human), UniProt P00746). As to the kind of experiment: Human Factor D Assay. The test is classed as biochemical. The following applies: Human Factor D, Table 3; read-out: IC50. The gist of the method: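 Serum-purified human Factor D (80 nM final) was preincubated with test compound at various concentrations for 5 min at room temperature in 50 mM Tris, 1M NaCl, pH 7.5. Z-L-Lys-SBzl and DTNB were then added at 100 μM each. IC50 came from nonlinear regression of reaction rates versus compound concentration.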
Human Factor D, sequence (P00746 26-253): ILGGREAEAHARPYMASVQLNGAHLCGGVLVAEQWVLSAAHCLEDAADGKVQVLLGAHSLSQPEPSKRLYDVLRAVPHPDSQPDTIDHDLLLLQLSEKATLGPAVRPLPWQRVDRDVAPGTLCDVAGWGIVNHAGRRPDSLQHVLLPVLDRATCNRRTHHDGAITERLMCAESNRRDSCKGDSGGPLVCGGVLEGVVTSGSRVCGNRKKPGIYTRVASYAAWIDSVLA
Turning to `CC(=O)c1nn(CC(=O)N2[C@H](C(=O)NCC(F)=C(C)C)C[C@@]3(C)C[C@@H]23)c2ccc(-c3cnc(C)nc3)cc12` [Compound 621, (1R,3S,5R)-2-(2-(3-acetyl-5-(2-methylpyrimidin-5-yl)-1H-indazol-1-yl)acetyl)-N-(2-fluoro-3-methylbut-2-en-1-yl)-5-methyl-2-azabicyclo[3.1.0] hexane-3-carboxamide], the pIC50 was > 6.00.

As for `CC(=O)c1nn(CC(=O)N2[C@H](C(=O)N[C@@H](C)C(F)=C(C)C)C[C@@]3(C)C[C@@H]23)c2ccc(-c3cnc(C)nc3)cc12` [Compound 622, (1R,3S,5R)-2-(2-(3-acetyl-5-(2-methylpyrimidin-5-yl)-1H-indazol-1-yl)acetyl)-N-((S)-3-fluoro-4-methylpent-3-en-2-yl)-5-methyl-2-azabicyclo[3.1.0] hexane-3-carboxamide], the pIC50 was > 6.00.

Consider `CC(=O)c1nn(CC(=O)N2[C@H](C(=O)N[C@H](C)C(F)=C(C)C)C[C@@]3(C)C[C@@H]23)c2ccc(-c3cnc(C)nc3)cc12` [Compound 623, (1R,3S,5R)-2-(2-(3-acetyl-5-(2-methylpyrimidin-5-yl)-1H-indazol-1-yl)acetyl)-N-((R)-3-fluoro-4-methylpent-3-en-2-yl)-5-methyl-2-azabicyclo[3.1.0] hexane-3-carboxamide], for which the pIC50 was > 6.00.

In the case of `CC(=O)c1nn(CC(=O)N2[C@H](C(=O)Nc3cccc(OC(F)(F)F)n3)C[C@@]3(C)C[C@@H]23)c2ccc(-c3cnc(C)nc3)cc12` [Compound 624, (1R,3S,5R)-2-(2-(3-acetyl-5-(2-methylpyrimidin-5-yl)-1H-indazol-1-yl)acetyl)-5-methyl-N-(6-(trifluoromethoxy)pyridin-2-yl)-2-azabicyclo[3.1.0] hexane-3-carboxamide], the pIC50 is > 6.00.

Take `CC(=O)c1nn(CC(=O)N2[C@H](C(=O)Nc3ccn(CC(F)(F)F)n3)C[C@@]3(C)C[C@@H]23)c2ccc(-c3cnc(C)nc3)cc12` [Compound 625]: the negative-log IC50 (pIC50) is > 6.00.

In the case of `CC(=O)c1nn(CC(=O)N2[C@H](C(=O)Nc3cccc(OC(F)(F)F)c3F)C[C@@]3(C)C[C@@H]23)c2ccc(-c3cnc(C)nc3)cc12` [Compound 630, (1R,3S,5R)-2-(2-(3-acetyl-5-(2-methylpyrimidin-5-yl)-1H-indazol-1-yl)acetyl)-N-(2-fluoro-3-(trifluoromethoxy)phenyl)-5-methyl-2-azabicyclo[3.1.0] hexane-3-carboxamide], the pIC50 is > 6.00.

With `CC(=O)c1nn(CC(=O)N2[C@H](C(=O)Nc3cccc(C(F)(F)F)n3)C[C@@]3(C)C[C@@H]23)c2ccc(-c3cnc(C)nc3)cc12` [Compound 631, (1R,3S,5R)-2-(2-(3-acetyl-5-(2-methylpyrimidin-5-yl)-1H-indazol-1-yl)acetyl)-5-methyl-N-(6-(trifluoromethyl)pyridin-2-yl)-2-azabicyclo[3.1.0] hexane-3-carboxamide], the pIC50 was > 6.00.

As for `COc1ncc(-c2ccc3c(c2)c(C(C)=O)nn3CC(=O)N2[C@H](C(=O)Nc3nc(Br)ccc3C)C[C@@]3(C)C[C@@H]23)cn1` [Compound 632, (1R,3S,5R)-2-(2-(3-Acetyl-5-(2-methoxypyrimidin-5-yl)-1H-indazol-1-yl)acetyl)-N-(6-bromo-3-methylpyridin-2-yl)-5-methyl-2-azabicyclo[3.1.0]hexane-3-carboxamide], the pIC50 is > 6.00.

Regarding `CC(=O)c1nn(CC(=O)N2C[C@H](F)C[C@H]2C(=O)Nc2cccc(Br)n2)c2cnc(-c3cnc(C)nc3)cc12` [Compound 633, (2S,4R)-1-(2-(3-Acetyl-5-(2-methylpyrimidin-5-yl)-1H-pyrazolo[3,4-c]pyridin-1-yl)acetyl)-N-(6-bromopyridin-2-yl)-4-fluoropyrrolidine-2-carboxamide], the pIC50 is > 6.00.

`COc1ncc(-c2ccc3c(c2)c(C(C)=O)nn3CC(=O)N2C[C@H]3C[C@H]3[C@H]2C(=O)Nc2nc(Br)ccc2C)cn1` [Compound 634, (1R,2S,5S)-3-(2-(3-Acetyl-5-(2-methoxypyrimidin-5-yl)-1H-indazol-1-yl)acetyl)-N-(6-bromo-3-methylpyridin-2-yl)-3-azabicyclo[3.1.0]hexane-2-carboxamide]: the negative logarithm of the IC50 (pIC50) was > 6.00.

As to `CC(=O)c1nn(CC(=O)N2C[C@H]3C[C@H]3[C@H]2C(=O)Nc2nc(Br)ccc2C)c2ccc(-c3cnc(N)nc3)cc12` [Compound 635, (1R,2S,5S)-3-(2-(3-Acetyl-5-(2-aminopyrimidin-5-yl)-1H-indazol-1-yl)acetyl)-N-(6-bromo-3-methylpyridin-2-yl)-3-azabicyclo[3.1.0]hexane-2-carboxamide], the pIC50 is > 6.00.

Take `CC(=O)c1nn(CC(=O)N2[C@H](C(=O)Nc3nc(Br)ccc3C)C[C@@]3(C)C[C@@H]23)c2c(C)cc(-c3cnc(C)nc3)cc12` [Compound 636, (1R,3S,5R)-2-(2-(3-Acetyl-7-methyl-5-(2-methylpyrimidin-5-yl)-1H-indazol-1-yl)acetyl)-N-(6-bromo-3-methylpyridin-2-yl)-5-methyl-2-azabicyclo[3.1.0]hexane-3-carboxamide]: the pIC50 was > 6.00.

As for `CC(=O)c1nn(CC(=O)N2C[C@H]3C[C@H]3[C@H]2C(=O)Nc2nc(Br)ccc2C2CC2)c2ccc(-c3cnc(C)nc3)cc12` [Compound 637, (1R,2S,5S)-3-(2-(3-Acetyl-5-(2-methylpyrimidin-5-yl)-1H-indazol-1-yl)acetyl)-N-(6-bromo-3-cyclopropylpyridin-2-yl)-3-azabicyclo[3.1.0]hexane-2-carboxamide], the pIC50 is > 6.00.

As for `CC(=O)c1nn(CC(=O)N2C[C@H]3C[C@H]3[C@H]2C(=O)Nc2ccn(CC(F)(F)F)n2)c2ccc(-c3cnc(C)nc3)cc12` [Compound 638, (1R,2S,5S)-3-(2-(3-Acetyl-5-(2-methylpyrimidin-5-yl)-1H-indazol-1-yl)acetyl)-N-(1-(2,2,2-trifluoroethyl)-1H-pyrazol-3-yl)-3-azabicyclo[3.1.0]hexane-2-carboxamide], the pIC50 was > 6.00.

With `CC(=O)c1nn(CC(=O)N2C[C@@](F)(CN(C)C)C[C@H]2C(=O)Nc2cccc(Br)n2)c2ccc(-c3cnc(C)nc3)cc12` [Compound 639, (2S,4S)-1-(2-(3-Acetyl-5-(2-methylpyrimidin-5-yl)-1H-indazol-1-yl)acetyl)-N-(6-bromopyridin-2-yl)-4-((dimethylamino)methyl)-4-fluoropyrrolidine-2-carboxamide], the pIC50 was > 6.00.

Regarding `CC(=O)c1nn(CC(=O)N2[C@H](C(=O)Nc3cncc(C(F)(F)F)n3)C[C@@]3(C)C[C@@H]23)c2ccc(-c3cnc(C)nc3)cc12` [Compound 640, (1R,3S,5R)-2-(2-(3-acetyl-5-(2-methylpyrimidin-5-yl)-1H-indazol-1-yl)acetyl)-5-methyl-N-(6-(trifluoromethyl)pyrazin-2-yl)-2-azabicyclo[3.1.0] hexane-3-carboxamide], the pIC50 was > 6.00.

In the case of `COc1ncc(-c2ccc3c(c2)c(C(C)=O)nn3CC(=O)N2C[C@H]3C[C@H]3[C@H]2C(=O)Nc2nc(Br)ccc2C2CC2)cn1` [Compound 641, (1R,2S,5S)-3-(2-(3-Acetyl-5-(2-methoxypyrimidin-5-yl)-1H-indazol-1-yl)acetyl)-N-(6-bromo-3-cyclopropylpyridin-2-yl)-3-azabicyclo[3.1.0]hexane-2-carboxamide], the pIC50 is > 6.00.

Turning to `CC(=O)c1nn(CC(=O)N2C[C@@H](C)C[C@H]2C(=O)Nc2nc(Br)ccc2C)c2ccc(-c3cnc(C)nc3)cc12` [Compound 643, (2S,4S)-1-(2-(3-Acetyl-5-(2-methylpyrimidin-5-yl)-1H-indazol-1-yl)acetyl)-N-(6-bromo-3-methylpyridin-2-yl)-4-methylpyrrolidine-2-carboxamide], the pIC50 is > 6.00.

In the case of `CC(=O)c1nn(CC(=O)N2C[C@H](C)C[C@H]2C(=O)Nc2nc(Br)ccc2C)c2ccc(-c3cnc(C)nc3)cc12` [Compound 644, (2S,4R)-1-(2-(3-Acetyl-5-(2-methylpyrimidin-5-yl)-1H-indazol-1-yl)acetyl)-N-(6-bromo-3-methylpyridin-2-yl)-4-methylpyrrolidine-2-carboxamide], the pIC50 is > 6.00.

Consider `CC(=O)c1nn(CC(=O)N2C[C@@](F)(CN(C)C)C[C@H]2C(=O)Nc2nc(Br)ccc2C)c2ccc(-c3cnc(C)nc3)cc12` [Compound 645, (2S,4S)-1-(2-(3-Acetyl-5-(2-methylpyrimidin-5-yl)-1H-indazol-1-yl)acetyl)-N-(6-bromo-3-methylpyridin-2-yl)-4-((dimethylamino)methyl)-4-fluoropyrrolidine-2-carboxamide], for which the pIC50 was > 6.00.

As for `CC(=O)c1nn(CC(=O)N2[C@@H](C)CC[C@H]2C(=O)Nc2nc(Br)ccc2C)c2ccc(-c3cnc(C)nc3)cc12` [Compound 646, (2S,5S)-1-(2-(3-Acetyl-5-(2-methylpyrimidin-5-yl)-1H-indazol-1-yl)acetyl)-N-(6-bromo-3-methylpyridin-2-yl)-5-methylpyrrolidine-2-carboxamide], the pIC50 is > 6.00.

Consider `CC(=O)c1nn(CC(=O)N2[C@H](C(=O)Nc3nc(Br)ccc3C)C[C@@H]3C[C@@H]32)c2ccc(-c3cnc(C)nc3)cc12` [Compound 647, (1S,3S,5S)-2-(2-(3-Acetyl-5-(2-methylpyrimidin-5-yl)-1H-indazol-1-yl)acetyl)-N-(6-bromo-3-methylpyridin-2-yl)-2-azabicyclo[3.1.0]hexane-3-carboxamide], for which the negative-log IC50 (pIC50) is > 6.00.

As to `CC(=O)c1nn(CC(=O)N2C[C@H](F)C[C@@H]2C(=O)Nc2nc(Br)ccc2C(=O)O)c2ccc(-c3cnc(C)nc3)cc12` [Compound 648, 2-((2R,4R)-1-(2-(3-Acetyl-5-(2-methylpyrimidin-5-yl)-1H-indazol-1-yl)acetyl)-4-fluoropyrrolidine-2-carboxamido)-6-bromonicotinic acid], the pIC50 was < 5.00.

Turning to `CC(=O)c1nn(CC(=O)N2C[C@H](F)C[C@H]2C(=O)Nc2cccc(Br)n2)c2ccc(-c3cnc(Cl)nc3)cc12` [Compound 651, (2S,4R)-1-(2-(3-Acetyl-5-(2-chloropyrimidin-5-yl)-1H-indazol-1-yl)acetyl)-N-(6-bromopyridin-2-yl)-4-fluoropyrrolidine-2-carboxamide], the pIC50 was < 5.00.

In general, pIC50 refers to the negative decadic logarithm of the IC50, by convention in mol/L.

(Values after patent publication US10287301B2 (Achillion Pharmaceuticals, Inc., priority 2015, dated 2019).)
